# How the values were obtained:
# Assay type in all cases: in vivo
# [1] = tested on: Pigweed, Palmer (palmer amaranth, palmer pigweed, Amaranthus palmeri); assay: Test A1 postemergence, Pigweed, Palmer; details: for Pigweed, Palmer plant response rating: postemergence; for Plant response rating, Pigweed, Palmer: Postemergence
# Method in brief: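 Seeds were first planted into a blend of loam soil and sand and given a preemergence directed soil spray. In parallel, pots of the same soil were sown for postemergence application once plants reached 2 to 10 cm and the one- to two-leaf stage. Both used surfactant-containing non-phytotoxic solvent formulations.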
# [2] = tested on: Ryegrass, Italian (Italian ryegrass, Lolium multiflorum); assay: Test A1 preemergence, Ryegrass, Italian
# Method in brief: (§1)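 Plants grown in pots of loam/sand mix; preemergence = soil-directed spray on seeded pots, postemergence = spray at 1–2 leaves, height 2–10 cm; test chemicals formulated in non-phytotoxic solvent with surfactant.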
# [3] = tested on: Ryegrass, Italian (Italian ryegrass, Lolium multiflorum); assay: Test A1 postemergence, Ryegrass, Italian; details: for Ryegrass, Italian plant response rating: postemergence; for Plant response rating, Ryegrass, Italian: Postemergence
# Method in brief: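 Both timings started from seed in a loam-sand blend. Preemergence pots got a directed soil application immediately; postemergence pots were sprayed when seedlings had one or two leaves and stood 2–10 cm. Each compound was prepared in a non-phytotoxic solvent plus surfactant.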
# [4] = tested on: Pigweed, Palmer (palmer amaranth, palmer pigweed, Amaranthus palmeri); assay: Test A1 preemergence, Pigweed, Palmer
# Method in brief: as §1
# [5] = 31 g ai/ha, 0 to 100 scale (0 no effect, 100 complete control)
# [6] = 125 g ai/ha, 0 to 100 scale, 0 no effect, 100 complete control
# [7] = 31 g ai/ha, 0 to 100 scale (0 no effect, 100 complete control), 10 days
# [8] = 125 g ai/ha, 0 to 100 scale (0 no effect, 100 complete control), 10 days
# [9] = 500 g ai/ha, 0 to 100 scale (0 no effect, 100 complete control)
SMILES,"Pigweed, Palmer plant response rating [1, 5]","Plant response rating, Pigweed, Palmer ([1]; 125 g ai/ha, 0 to 100 scale)","Plant response rating, Ryegrass, Italian [2, 5]","Plant response rating, Ryegrass, Italian [2, 6]","Ryegrass, Italian plant response rating [3, 5]","Plant response rating, Ryegrass, Italian ([3]; 125 g ai/ha, 0 to 100 scale)","Plant response rating, Pigweed, Palmer [4, 5]","Plant response rating, Pigweed, Palmer [4, 6]","Plant response rating, Pigweed, Palmer [1, 7]","Plant response rating, Ryegrass, Italian [3, 7]","Plant response rating, Pigweed, Palmer [1, 8]","Plant response rating, Ryegrass, Italian [3, 8]","Plant response rating, Pigweed, Palmer ([1]; 500 g ai/ha, 0 to 100 scale)","Plant response rating, Ryegrass, Italian [2, 9]","Plant response rating, Ryegrass, Italian ([3]; 500 g ai/ha, 0 to 100 scale)","Plant response rating, Pigweed, Palmer [4, 9]"
Cc1c(C(=O)N2C[C@@H](C)O[C@H](C)C2)cc(N(COC(=O)C(C)(C)C)S(=O)(=O)C(F)(F)F)c(C)c1C (relative stereo) [Compound 373],0,10,0,0,0,30,20,40,–,–,–,–,–,–,–,–
CCOC(=O)N(c1cc(C(=O)N2C[C@@H](C)O[C@H](C)C2)c(C)c(C)c1C)S(=O)(=O)C(F)(F)F (relative stereo) [Compound 374],10,30,0,90,0,50,60,80,–,–,–,–,–,–,–,–
Cc1c(C(=O)N2CCSCC2)cc(N(COC(=O)C(C)(C)C)S(=O)(=O)C(F)(F)F)c(C)c1C [Compound 285],–,20,0,0,–,0,10,20,0,0,–,–,–,–,–,–
CCOC(=O)N(c1cc(C(=O)N2CCSCC2)c(C)c(C)c1C)S(=O)(=O)C(F)(F)F [Compound 286],–,30,0,0,–,0,50,70,0,0,–,–,–,–,–,–
C#CCN(C)C(=O)c1cc(NS(=O)(=O)C(F)(F)F)c(C)c(C)c1C [Compound 368],20,40,50,100,20,90,100,100,–,–,–,–,–,–,–,–
Cc1c(C(=O)N2CCC(C)CC2)cc(N(COC(=O)C(C)(C)C)S(=O)(=O)C(F)(F)F)c(C)c1C [Compound 369],0,40,40,40,0,20,0,50,–,–,–,–,–,–,–,–
C#CCN(C)C(=O)c1cc(N(COC(=O)C(C)(C)C)S(=O)(=O)C(F)(F)F)c(C)c(C)c1C [Compound 371],0,30,0,80,20,80,10,80,–,–,–,–,–,–,–,–
Cc1cc(C)c(C2=NOC3OCCCC23)cc1NS(=O)(=O)C(F)(F)F (centres unmarked) [Compound 372],30,40,40,90,0,50,40,90,–,–,–,–,–,–,–,–
Cc1ccc(C2=NOC3CCCC23)cc1NS(=O)(=O)C(F)(F)F (centres unmarked) [Compound 377],0,0,0,40,0,0,0,0,–,–,–,–,–,–,–,–
CCc1cc(C)c(N(COC(=O)C(C)(C)C)S(=O)(=O)C(F)(F)F)cc1C1=NOC2CCCC12 (centres unmarked) [Compound 378],0,10,0,40,0,0,0,20,–,–,–,–,–,–,–,–
Cc1cc(C)c(C2=NOC(C(C)C)C2)cc1NS(=O)(=O)C(F)(F)F (centres unmarked) [Compound 381],0,–,50,90,0,–,30,90,–,–,10,0,–,–,–,–
Cc1c(C2=NOC3(CCCC3)C2)cc(N(COC(=O)C(C)(C)C)S(=O)(=O)C(F)(F)F)c(C)c1C [Compound 382],0,–,30,50,0,–,0,20,–,–,20,0,–,–,–,–
Cc1cc(C)c(N(COC(=O)C(C)(C)C)S(=O)(=O)C(F)(F)F)cc1C1=NOC(C(C)C)C1 (centres unmarked) [Compound 383],0,–,0,40,0,–,0,0,–,–,10,0,–,–,–,–
Cc1cc(C)c(N2CC3(CCCCC3)CC2=O)cc1NS(=O)(=O)C(F)(F)F [Compound 392],0,–,0,60,0,–,0,20,–,–,40,0,–,–,–,–
Cc1cc(Cl)c(NS(=O)(=O)C(F)(F)F)cc1N1CCC2(CCCCC2)C1=O [Compound 393],0,–,90,100,30,–,30,60,–,–,80,50,–,–,–,–
Cc1cc(Cl)c(NS(=O)(=O)C(F)(F)F)cc1N1CC2(CCCCC2)OC1=O [Compound 394],50,–,40,100,20,–,20,90,–,–,50,40,–,–,–,–
Cc1cc(C)c(N(COC(=O)C(C)(C)C)S(=O)(=O)C(F)(F)F)cc1N1CCC2(CCC(F)(F)CC2)C1=O [Compound 397],–,–,–,100,–,–,–,90,–,–,80,50,100,100,80,100
COC1CCC2(CC1)CCN(c1cc(NS(=O)(=O)C(F)(F)F)c(C)cc1C)C2=O (centres unmarked) [Compound 398],50,–,60,100,50,–,80,100,–,–,80,90,–,–,–,–
Cc1cc(C)c(N2CCC3(CCC(C(F)(F)F)CC3)C2=O)cc1NS(=O)(=O)C(F)(F)F (centres unmarked) [Compound 400],20,–,60,90,0,–,50,100,–,–,70,0,–,–,–,–

# — patent US20230278972A1, “SUBSTITUTED HALOALKYL SULFONANILIDE HERBICIDES” (FMC Corporation, priority 2020, published 2023)
